Entries after “also recorded” stand apart in the source; their conditions may differ. Structures can show the parent of a compound that is named as a salt.
Assays:
[1] = Hydrolysis kinetics of bleach activator storage solutions by HPLC analysis; format: physicochemical; conditions: 10% solution, pH 5, room temperature
Text: Because the concentration of hydroxide ion, OH^−, in the cationic bleach activator solution is almost constant by using a buffer (pH 5), the decrease in the concentration of bleach activator can be expressed as equation 1:
[formula] wherein, [C] is the concentration of bleach activator at time t and k is the pseudo first order rate constant of hydrolysis. See M. B. Smith and J. March, March's Advanced Organic Chemistry: Reactions, Mechanisms, and Structure, 5th ed. (New York: Wiley, 2001) 291.
Equation 2 then can be derived from equation 1:
[formula] wherein, C0 and Ct are the concentration of bleach activator at initial time and time t, respectively.
(§1) Aqueous solutions (10% w/w) of cationic bleach activators 3a–3e were prepared using pH 5 buffer solution. A buffer solution of pH 5 was made using sodium acetate (0.1 M)/acetic acid. Each solution was stored in an amber glass bottle at room temperature.
The HPLC (Waters Breeze HPLC system, Waters Corporation, Milford, Mass., United States of America) with a C18 reverse-phase column (Waters Symmetry C18, 5 μm) was used to analyze the hydrolysis behaviors of the cationic bleach activators 3a–3e during storage. On the selected day, a 0.5 mL aliquot was withdrawn from each storage solution of 3a–3e and diluted with 24.5 mL of water. A 10-μL sample of the solution was injected into the HPLC. For the mobile phase, the gradient program using water with 0.005M heptanesulphonic acid as a solvent A and acetonitrile as a solvent B was used (Table 2). The flow rate was 1 mL/min.

[2] = Bleaching of cotton fabric with bleach activators, CIE whiteness index measurement; conditions: stored 10% w/w aqueous solutions, pH 5, bleaching at 70° C. for 50 min
Method: On the same day of the AvO measurement, bleaching was carried out with storage solutions of the bleach activators 3a–3e. Two grams of each solution was added to the bleaching solution, which comprised a wetting agent (1 g/L), stabilizer (1 g/L), NaOH (50% w/w, 3 g/L) and H2O2 (50% w/w, 3 g/L). Cotton fabric (10 g) was bleached in a laboratory IR dyeing machine (Ahiba Nuance, Datacolor International, Lawrenceville, N.J., United States of America) at a liquor ratio of 10:1. The temperature was raised to 70° C. at the rate of 4° C./min. After 50 min of bleaching, the bleaching bath was cooled to room temperature. The bleached fabric was rinsed thoroughly in tap water and air-dried.
The CIE Whiteness Index (WI) value was obtained for the bleached fabric using AATCC Test Method 110–1995. See AATCC Technical Manual, vol 75 (Research Triangle Park: American Association of Textile Chemists and colorists, 2000), the disclosure of which is incorporated herein by reference in its entirety.
The whiteness was measured on a UV calibrated Datacolor Spectraflash SF 600X (Datacolor Corporation, Lawrenceville, N.J., United States of America), under illuminant D65 using the 10° standard observer with specular and UV component included. Each sample was folded twice to give an opaque sample with four plies and whiteness was measured four times at different surfaces. The average value of CIE WI was recorded.

[3] = Available oxygen (AvO) of bleach activator storage solutions by modified iodometric titration; format: physicochemical; conditions: 10% w/w aqueous solution, pH 5 buffer, room temperature storage
Text: Active or available oxygen (AvO) is a useful parameter for assessing the oxidizing power of hydrogen peroxide or peracids from bleach activators. See American Standard Test Method D 2180–89 (West Conshohocken: ASTM International, 2003); and J. K. Grime, A. D. Clauss and K. A. Leslie, Tenside Surf. Det., 29 (1992) 23. A modified iodometric titration method was used to measure the AvO of the presently disclosed bleach activators. See J. J. Lee, S. Lim, P. Hauser and D. Hinks, Color. Technol., 121 (2005) 37.
as §1
AvO of a bleach activator was measured using a previously described procedure. See J. J. Lee, S. Lim, P. Hauser and D. Hinks, Color. Technol., 121 (2005) 37, the disclosure of which is incorporated herein by reference in its entirety.
On the selected day, the pH value of each storage solution was recorded and a 2 mL aliquot was withdrawn and added to a mixture of deionized water, stabilizer (1 g/L), Na2CO3 (14 g/L) and H2O2 (50% w/w, 0.5 g/L) to make a total volume of 200 mL. Crushed ice (180 g) was added to the sample solution while stirring. Acetic acid (50 mL) and potassium iodide solution (10 mL, 10% w/v) were then added separately. Using 0.025N sodium thiosulfate solution, the sample solution was titrated until it turned colorless. AvO (ppm) of a bleach activator was calculated using Equation 3.
[formula] wherein, Vtotal and VH2O2 are the volume (mL) of Na2S2O3 solution required for the titration of sample and blank respectively.

[4] = compared with conventional peroxide bleaching; cited from earlier work

Compound: CC[N+](CC)(CC)Cc1ccc(C(=O)N2CCCC2=O)cc1 (as salt: chloride) [Compound 3a, N-[4-(triethylammoniomethyl)benzoyl] butyrolactam chloride]
- melting point: 228 to 230 °C

Compound: CC[N+](CC)(CC)Cc1ccc(C(=O)N2CCCCCCC2=O)cc1 (as salt: chloride) [Compound 3d, N-[4-(triethylammoniomethyl)benzoyl] heptalactam chloride]
- melting point: 194 to 196 °C

Compound: CC[N+](CC)(CC)Cc1ccc(C(=O)N2CCCCCCCC2=O)cc1 (as salt: chloride) [Compound 3e, N-[4-(triethylammoniomethyl)benzoyl] octalactam chloride]
- melting point: 183 to 185 °C

Compound: CC[N+](CC)(CC)Cc1ccc(C(=O)N2CCCC2=O)cc1 [Compound 3a, N-[4-(triethylammoniomethyl)benzoyl] butyrolactam chloride]
- hydrolytic stability under typical storage conditions [1]: more stable than TBCC
- pseudo first order rate constant of hydrolysis (ranking) [1]: smaller than that of TBCC

Compound: CC[N+](CC)(CC)Cc1ccc(C(=O)N2CCCCC2=O)cc1.[Cl-] [Compound 3b, N-[4-(triethylammoniomethyl)benzoyl] valerolactam chloride]
- melting point: 187 to 189 °C
- change of CIE-WI of cotton fabric bleached with stored activator solutions over storage time [2]: decreased fastest
- pseudo first order rate constant of hydrolysis (ranking) [1]: greatest
- rate constant of hydrolysis, times greater than that of 3c or TBCC [1]: two times greater
- rate of decrease of AvO over storage time [3]: decreased the fastest

Compound: CC[N+](CC)(CC)Cc1ccc(C(=O)N2CCCCCC2=O)cc1.[Cl-] [Compound 3c, N-[4-(triethylammoniomethyl)benzoyl] caprolactam chloride]
- melting point: 212 to 214 °C
- bleaching performance [4]: satisfactory bleaching performance in a shorter time and at lower temperatures than conventional peroxide bleaching
- rate of decrease of AvO over storage time [3]: second to that of 3b

Compound: CC[N+](CC)(CC)Cc1ccc(C(=O)N2CCCCCCC2=O)cc1 [Compound 3d, N-[4-(triethylammoniomethyl)benzoyl] heptalactam chloride]
- hydrolytic stability under typical storage conditions [1]: more stable than TBCC
- pseudo first order rate constant of hydrolysis (ranking) [1]: smaller than that of TBCC

Compound: CC[N+](CC)(CC)Cc1ccc(C(=O)N2CCCCCCCC2=O)cc1 [Compound 3e, N-[4-(triethylammoniomethyl)benzoyl] octalactam chloride]
- change of CIE-WI of cotton fabric bleached with stored activator solutions over storage time [2]: decreased slowest
- hydrolytic stability under typical storage conditions [1]: more stable than TBCC; also recorded: the most stable compound
- pseudo first order rate constant of hydrolysis (ranking) [1]: smaller than that of TBCC
- rate constant of hydrolysis, times smaller than that of 3a [1]: about 3 times
- rate constant of hydrolysis, times smaller than that of TBCC [1]: ~7 times
- rate of decrease of AvO over storage time [3]: decreased the slowest
